In the NIST ThermoML archive (doi:10.1016/j.jct.2009.11.018):
± gives the expanded uncertainty stated by the source.

Experiment: xn = mol fraction of the nth substance listed
Conditions: 298.15 K, 101 kPa, Liquid, Pycnometric method

CCC(O)CO (centres undefined) [1,2-butanediol] + O
Conditions	mass density [kg/m3]
x1 = 0.0625	1009.5 ± 2.7
x1 = 0.1347	1015.8 ± 2.7
x1 = 0.2153	1016.4 ± 2.7
x1 = 0.3019	1014.2 ± 2.7
x1 = 0.3915	1011.6 ± 2.7
x1 = 0.4804	1009.2 ± 2.7
x1 = 0.5651	1006.9 ± 2.7
x1 = 0.6428	1005.2 ± 2.7
x1 = 0.7115	1003.6 ± 2.7
x1 = 0.7703	1002.4 ± 2.7
x1 = 0.8195	1001.4 ± 2.7
x1 = 0.8595	1000.7 ± 2.7
x1 = 0.8916	1000.2 ± 2.7
x1 = 0.9244	999.9 ± 2.7

CC(O)CO (centres undefined) [1,2-propanediol] + O
Conditions	mass density [kg/m3]
x1 = 0.0731	1016.4 ± 2.7
x1 = 0.1555	1031.1 ± 2.7
x1 = 0.2449	1037.7 ± 2.7
x1 = 0.3384	1039.6 ± 2.7
x1 = 0.4321	1039.8 ± 2.7
x1 = 0.5223	1039 ± 2.7
x1 = 0.6058	1038 ± 2.7
x1 = 0.6803	1036.8 ± 2.7
x1 = 0.7446	1035.9 ± 2.7
x1 = 0.7987	1035 ± 2.7
x1 = 0.843	1034.5 ± 2.7
x1 = 0.8786	1033.8 ± 2.7
x1 = 0.9068	1033.4 ± 2.7
x1 = 0.9355	1033.1 ± 2.7

CC(O)CCO (centres undefined) [1,3-butanediol] + O
Conditions	mass density [kg/m3]
x1 = 0.0625	1008.2 ± 2.7
x1 = 0.1347	1015.9 ± 2.7
x1 = 0.2153	1019.2 ± 2.7
x1 = 0.3019	1018.8 ± 2.7
x1 = 0.3915	1016.8 ± 2.7
x1 = 0.4804	1014.4 ± 2.7
x1 = 0.5651	1012.2 ± 2.7
x1 = 0.6428	1009.9 ± 2.7
x1 = 0.7115	1007.9 ± 2.7
x1 = 0.7703	1006.2 ± 2.7
x1 = 0.8195	1004.8 ± 2.7
x1 = 0.8595	1003.8 ± 2.6
x1 = 0.8916	1003 ± 2.6
x1 = 0.9244	1002.2 ± 2.6

OCCCCO [1,4-butanediol] + O
Conditions	mass density [kg/m3]
x1 = 0.0625	1006.6 ± 2.7
x1 = 0.1347	1015 ± 2.7
x1 = 0.2153	1019.9 ± 2.7
x1 = 0.3019	1021.6 ± 2.7
x1 = 0.3915	1021.7 ± 2.7
x1 = 0.4804	1021 ± 2.7
x1 = 0.5651	1020 ± 2.7
x1 = 0.6428	1018.8 ± 2.7
x1 = 0.7115	1017.5 ± 2.7
x1 = 0.7703	1016.6 ± 2.7
x1 = 0.8195	1015.7 ± 2.7
x1 = 0.8595	1015.1 ± 2.7
x1 = 0.8916	1014.7 ± 2.7
x1 = 0.9244	1014.1 ± 2.7

CC(O)C(C)O (centres undefined) [2,3-butanediol] + O
Conditions	mass density [kg/m3]
x1 = 0.0618	1014.1 ± 2.7
x1 = 0.1379	1021.5 ± 2.7
x1 = 0.1796	1023.1 ± 2.7
x1 = 0.2179	1023.2 ± 2.7
x1 = 0.2417	1022.7 ± 2.7
x1 = 0.2696	1022 ± 2.7
x1 = 0.3027	1021 ± 2.7
x1 = 0.3426	1019.5 ± 2.7
x1 = 0.3913	1017.6 ± 2.7
x1 = 0.4524	1015.2 ± 2.7
x1 = 0.5308	1012.2 ± 2.7
x1 = 0.6352	1008.4 ± 2.7
x1 = 0.7805	1004.1 ± 2.7
x1 = 0.9001	1000.9 ± 2.7

OCCCO [propan-1,3-diol] + O
Conditions	mass density [kg/m3]
x1 = 0.0731	1015.1 ± 2.7
x1 = 0.1555	1028.5 ± 2.7
x1 = 0.2449	1038.2 ± 2.8
x1 = 0.3384	1044.4 ± 2.8
x1 = 0.4321	1047.9 ± 2.8
x1 = 0.5223	1049.6 ± 2.8
x1 = 0.6058	1050.3 ± 2.8
x1 = 0.6803	1050.4 ± 2.8
x1 = 0.7446	1050.5 ± 2.8
x1 = 0.7987	1050.5 ± 2.8
x1 = 0.843	1050.4 ± 2.8
x1 = 0.8786	1050.4 ± 2.8
x1 = 0.9068	1050.2 ± 2.8
x1 = 0.9355	1049.9 ± 2.8
